{
  "source": "patent US6962909B2",
  "about": "“Treatment of neovascularization disorders with squalimine” (Genaera Corporation, priority 1995, dated 2005)",
  "key": {"[1]": {"system": "HIV clinical isolate", "test": "HIV replication in PHA-stimulated lymphocytes (P-24 antigen Elisa)", "assay_type": "cell-based", "set-up": "P-24 Elisa: unit not given here", "conditions": "for P-24 Elisa: 7 days", "protocol": "(§1) PHA-stimulated lymphocytes were inoculated with a clinical isolate of HIV at a multiplicity of infection of […]. Fresh lymphocytes were obtained and stimulated with PHA and IL-2. After 3 days, 1000 TCID of virus-(HIV clinical isolate) were applied for 1 hour and there was a M.O.I. of 1:10. The cells were washed and in a dose response fashion, and drug in media was applied. After 3 days, the supernatant was exchanged with ½ volume of fresh media and ½ the volume of fresh drug. After 7 days, detergent was added, and HIV P-24 Antigen was determined by Elisa. Viability of the lymphocytes was evaluated along with appearance of the viral gene product p24."}, "[2]": {"system": "PHA-stimulated lymphocytes", "test": "Viability of lymphocytes in the HIV replication test", "assay_type": "cell-based", "protocol": "as §1"}, "[3]": {"test": "Arterial pressure in catheterized rat", "assay_type": "in vivo", "protocol": "A 200-g rat was catheterized in the right carotid artery, and the compound was introduced over a ten-second period to a total dosage of 5 mg/kg. Within 30 seconds, the mean arterial pressure had fallen from about 100 mm Hg to about 70 mm Hg, with a marked reduction in pulse pressure from about 40 mm to about 10 mm. […] If cardiac output was basically unaffected, reduction in blood pressure would have resulted principally from a reduction in system resistance.\nAt that time, 40 μg of noradrenaline was introduced."}, "[4]": {"system": "heart of a juvenile Xenopus laevis frog", "test": "Isolated frog heart, persistence of beating ex vivo", "conditions": "10 μg/ml; Krebs-Ringer buffer with adrenaline 50 μg/ml; without compound about one hour", "protocol": "To determine if compound 1436 has such utility, the following experiment was performed. The heart of a juvenile Xenopus laevis frog was dissected from the living animal. The heart was placed into a Petri dish containing Krebs-Ringer buffer with adrenaline 50 μg/ml, and examined with the naked eye. At room temperature, the heart continued beating in a coordinated fashion (atrial beat followed by ventricular beat) for about one hour. In the presence of 10 μg/ml of compound 1436, spontaneous beating persisted up to 24 hours."}, "[5]": {"system": "PHA-stimulated human lymphocytes", "test": "Inhibition of mitogen-stimulated growth of human T-cells", "assay_type": "cell-based", "conditions": "Lymphocyte, 10 μg/ml, read-out: Inhibition of blast transformation"}, "[6]": {"system": "L1210 lymphoblastic leukemia cells", "test": "Mouse model of L1210 leukemia", "experimental": "C57B mice were inoculated with L1210 lymphoblastic leukemia cells at an inoculum that causes leukemia in 100% of animals. Mice received compound 1436 at 1, 5, 10 mg/kg every 3 days intraperitoneally.\nOf particular interest is the hematological profile determined during the course of treatment. Animals were treated with cisplatin and compound 1436."}, "[7]": {"system": "bovine pulmonary endothelial cells", "test": "Cell growth with membrane-active agents (absorbance at 600 nm)", "assay_type": "cell-based", "conditions": "1 μg/ml", "protocol": "(§2) Cell growth was measured by absorbance at 600 nm."}, "[8]": {"system": "human epithelial cell line MCF 10A", "test": "Cell growth with membrane-active agents (absorbance at 600 nm)", "assay_type": "cell-based", "conditions": "10 μg/ml", "protocol": "as §2"}, "[9]": {"system": "human foreskin fibroblasts", "test": "Cell growth with membrane-active agents (absorbance at 600 nm)", "assay_type": "cell-based", "conditions": "10 μg/ml", "protocol": "as §2"}, "[10]": {"system": "human umbilical venous endothelial cells", "test": "LPS/TNF-α-induced neutrophil adherence to endothelial cells", "assay_type": "cell-based", "conditions": "squalamine 10 μg, 1.0 μg or 0.1 μg; three subjects", "protocol": "To determine if squalamine inhibited this particular endothelial cell function, standard adhesion assays were performed as outlined in Gamble et al., J. Imm. Methods 109, 1988, 175-184. […] In these experiments, approximately 2×10^5 human umbilical venous cells (passage 2-6) were plated per well. The cells were grown in serum-free media overnight. For induction, either TNF-α (40 ng/ml) was added to endothelial cells for 6 hours prior to adding neutrophils or LPS (100 ng/ml) was added for 4-6 hours. […] After activation of the endothelial cells, approximately 50×10^6 neutrophils were added per well. The plates were gently rocked for 30 minutes at room temperature, followed by removal of the media and washing in serum-free media three times and then photographing of each well. Experiments to test the effects of squalamine were performed by adding squalamine at 10 μg, 1.0 μg, or 0.1 μg at the time of adding LPS or TNF-α. A second repeat dose of squalamine was added at the time of adding neutrophils. A monoclonal Ab to ICAM-1 was a positive control."}, "[11]": {"system": "human melanoma 1205Lu", "test": "Growth of human melanoma 1205Lu in RAG-1 mice", "assay_type": "in vivo", "conditions": "10, 20, 40 mg/kg/d; started when tumors about 0.1 ml", "text": "As apparent from FIG. 5, melanoma 1205Lu develops aggressively in RAG-1 mice after implantation."}, "[12]": {"system": "VX2 carcinoma", "test": "Tumor-induced corneal neovascularization in rabbits", "assay_type": "in vivo, rabbit", "conditions": "pellet of ELVAX 40 P", "text": "The implantation of VX2 carcinoma into the rabbit cornea results in the induction of new blood vessels within several days (Tamargo et al., Cancer Research 51, 1991, 672-675). It is believed that this carcinoma secretes growth factors that stimulate new blood-vessel growth. Thus, this model is indicative in vivo evidence of therapeutic utility in the treatment of pathological disorders of vascularization, including the metastatic spread of tumors, diabetic retinopathy, macular degeneration, and rheumatoid arthritis.\nThis experiment followed the published protocol—tumor was implanted adjacent to a polymer containing a concentration of the agent to be evaluated. The polymer releases the agent slowly in the immediate neighborhood of the tumor, providing sustained high local concentrations of the agent. In this experiment, squalamine introduced into a pellet of ELVAX 40 P (DuPont, Wilmington, Del.) inhibited new blood vessel formation by about 60% at days 7 and 14, and by about 25% at day 21."}, "[13]": {"test": "Mouse IV PK study", "conditions": "in vivo, i.v., HPLC, read-out: Half-life of clearance from the blood stream", "protocol": "To assess clearance, a mouse IV PK study was performed for compound 319 and squalamine. The compound was administered i.v. and blood samples were taken every 10 minutes. The concentration of the administered steroid was determined by HPLC analysis."}, "[14]": {"conditions": "mice with 5 × 10^5 L1210 cells ip, cisplatin 8 mg/kg ip, compound 1436 10 mg/kg ip q4d"}},
  "data": [
    {"smiles": "CC(CC[C@@H](OS(=O)(=O)O)C(C)C)[C@H]1CCC2C3C(CC[C@@]21C)[C@@]1(C)CC[C@H](NCCCNCCCCNCCCN)C[C@@H]1C[C@H]3O", "note": "(some centres unmarked) [Compound 1436]", "values": [
      {"measurement": "P-24 Elisa", "setting": "[1]; Conc. 0.5 μM", "result": 40561},
      {"measurement": "P-24 Elisa", "setting": "[1]; Conc. 1 μM", "result": 7464},
      {"measurement": "P-24 Elisa", "setting": "[1]; Conc. 5 μM", "result": 3426},
      {"measurement": "P-24 Elisa", "setting": "[1]; Conc. 10 μM", "result": 421},
      {"measurement": "P-24 Elisa", "setting": "[1]; Conc. 20 μM", "result": 9},
      {"measurement": "inhibition at 10 µg/mL", "setting": "[1]; Human immunodeficiency virus 1, Lymphocyte, 10 μg/ml, read-out: Inhibition of antigen synthesis", "result": 97, "unit": "%"},
      {"measurement": "Lymphocyte viability retained", "setting": "[2]; 10 μg/ml", "result": 95, "unit": "%"},
      {"measurement": "% Viability", "setting": "[2]; Conc. 0.5 μM", "result": 91, "unit": "%"},
      {"measurement": "% Viability", "setting": "[2]; Conc. 10 μM", "result": 95, "unit": "%"},
      {"measurement": "% Viability", "setting": "[2]; Conc. 20 μM", "result": 90.1, "unit": "%"},
      {"measurement": "Heart rate", "setting": "[3]; 5 mg/kg", "result": "no significant increase in heart rate"},
      {"measurement": "Time to fall of arterial pressure", "setting": "[3]; 5 mg/kg", "result": "≤ 30", "unit": "s"},
      {"measurement": "Mean arterial pressure after dosing", "setting": "[3]; 5 mg/kg over ten seconds, fallen from about 100 mm Hg", "result": "about 70 mm Hg"},
      {"measurement": "Pulse pressure after dosing", "setting": "[3]; 5 mg/kg, reduced from about 40 mm", "result": "about 10 mm"},
      {"measurement": "Persistence of spontaneous beating", "setting": "[4]", "result": "up to 24 hours"},
      {"measurement": "inhibition at 10 µg/mL", "setting": "[5]", "result": "> 75", "unit": "%"},
      {"measurement": "Survival of leukemic mice", "setting": "[6]; highest dose (10 mg/kg every 3 days intraperitoneally)", "result": "significant prolongation of life"},
      {"measurement": "RBC, Early Time", "setting": "[6]; [14]", "result": "4.8 10^6/mm^3"},
      {"measurement": "RBC, Late Time", "setting": "[6]; [14]", "result": "8.8 10^6/mm^3"},
      {"measurement": "WBC, Early Time", "setting": "[6]; [14]", "result": "3.3 10^3/mm^3"},
      {"measurement": "WBC, Late Time", "setting": "[6]; [14]", "result": "3.7 10^3/mm^3"}
    ]},
    {"smiles": "CC(CC[C@@H](OS(=O)(=O)O)C(C)C)[C@H]1CCC2C3C(CC[C@@]21C)[C@@]1(C)CC[C@H](NCCCNCCCCN)C[C@@H]1C[C@H]3O", "note": "(some centres unmarked) [squalamine]", "values": [
      {"measurement": "Effect on cell growth", "setting": "[7]", "result": "inhibited the growth"},
      {"measurement": "Effect on cell growth", "setting": "[8]", "result": "no effect on the growth"},
      {"measurement": "Effect on cell growth", "setting": "[9]", "result": "no effect on the growth"},
      {"measurement": "Inhibition of neutrophil adherence", "setting": "[10]", "result": "no inhibition"},
      {"measurement": "Suppression of tumor growth", "setting": "[11]", "result": "suppress the growth of melanoma 1205Lu in RAG-1 mice in a dose-dependent fashion"},
      {"measurement": "Inhibition of new blood vessel formation", "setting": "[12]; day 21", "result": "about 25%"},
      {"measurement": "Inhibition of new blood vessel formation", "setting": "[12]; days 7 and 14", "result": "about 60%"},
      {"measurement": "half-life", "setting": "[13]", "result": "~35", "unit": "min"}
    ]}
  ]
}
